Article PMC3461044, “Probing Protein Sequences as Sources for Encrypted Antimicrobial Peptides” (PLoS ONE, 2012)
No end group written: not given here.

Legend:
[1] = tested on: Xanthomonas axonopodis pv. glycines; settings: for MIC, Xanthomonas axonopodis pv. glycines: serial 2-fold dilutions, 96-well, inoculum ~10^5 CFU/mL, highest 256 µg/mL, 48 h, OD600, NDA = Non-detectable activity; for 1/(log(MICs (mM)), Xanthomonas axonopodis pv. glycines): from MIC, 0 where no detectable activity
Protocol: MICs were determined using the M7-A6 protocol from the Clinical Laboratory Standards Institute (CLSI). […] Initial bacterium inoculum of ∼10^5 colony forming units/mL were transferred, along with serial 2-fold dilutions of each peptide to 96-well plates and incubated for 12 h. […] For each peptide concentration, optical density (OD600) readings were subtracted from that of the growth medium and divided by the positive control (100% bacterial growth). Inhibitory assays for X. axonopodis pv. glycines were conducted by the same methodology with longer incubation time (48 h).

[2] = tested on: Escherichia coli ATCC 25922; format: cell-based; settings: for MIC, Escherichia coli: Mueller-Hinton broth, serial 2-fold dilutions, inoculum ~10^5 CFU/mL, highest 256 µg/mL, 12 h, OD600, NDA = Non-detectable activity; for 1/(log(MICs (mM)), Escherichia coli): from MIC, 0 where no detectable activity
Protocol: (§1) MICs were determined using the M7-A6 protocol from the Clinical Laboratory Standards Institute (CLSI). Escherichia coli ATCC 25922, Pseudomonas aeruginosa ATCC 27853, Staphylococcus aureus ATCC 29313 were streaked in Mueller-Hinton agar, grown overnight at 37°C, transferred to Mueller-Hinton broth and incubated until readings at 600 nm reached the equivalent of 0.5 in the MacFarland scale. […]. Inhibitory assays for X. axonopodis pv. glycines were conducted by the same methodology with longer incubation time (48 h).

[3] = tested on: Pseudomonas aeruginosa ATCC 27853; format: cell-based; settings: for MIC, Pseudomonas aeruginosa: Mueller-Hinton broth, serial 2-fold dilutions, inoculum ~10^5 CFU/mL, highest 256 µg/mL, 12 h, OD600, NDA = Non-detectable activity; for 1/(log(MICs (mM)), Pseudomonas aeruginosa): from MIC, 0 where no detectable activity
Protocol: as §1

[4] = tested on: Staphylococcus aureus ATCC 29313; format: cell-based; settings: for MIC, Staphylococcus aureus: Mueller-Hinton broth, serial 2-fold dilutions, inoculum ~10^5 CFU/mL, highest 256 µg/mL, 12 h, OD600, NDA = Non-detectable activity; for 1/(log(MICs (mM)), Staphylococcus aureus): from MIC, 0 where no detectable activity
Protocol: as §1

[5] = Far UV circular dichroism of peptides in buffer (MRE, α-helix percentage); format: physicochemical; settings: for [q]208 nm Buffer (Greenfield 69): Mean Residue Ellipticity at 208 nm; for [q]208 nm Buffer (Greenfield 69) / [q]222 nm Buffer (Chen 74): peptide in buffer, far UV CD; for [q]222 nm Buffer (Chen 74): Mean Residue Ellipticity at 222 nm; for % Helicity (Buffer) (Greenfield 69): from [q]208 nm, methodology of Greenfield et al. 1969; for % Helicity (Buffer) (Chen 74): from [q]222 nm, methodology of Chen et al. 1974
Protocol: Far UV CD spectra were acquired for peptides at 20 µM in buffer and in the presence of DMPC or 2∶1 DMPC:DMPG LUVs at 1 mol% peptide/phospholipids. Peptides presented different degrees of secondary structures upon LUVs addition. […] Following the addition of LUVs, some peptides changed conformation resulting in spectral features characteristic of α-helical structures.
Experiments were conducted on a Jasco-J810 spectropolarimeter (Jasco International Co., Japan). Spectra were acquired at room temperature from 194 to 260 nm as an average of 4 readings using a 0.1 cm path length cell, data pitch of 0.2 nm and a response time of 0.5 s. Data Scans of buffer and 2 mM DMPC and 2∶1 DMPC:DMPG LUVs solutions were acquired and subtracted from each peptide data. Peptides were scanned at a concentration of 20 µM in buffer and then 100 fold excess of DMPC and 2∶1 DMPC:DMPG LUVs were added, resulting in a molar ratio of 0.01 peptide/phospholipids. […] Proximity to equilibrium was verified by scanning peptides added with twice the LUVs concentration, approximately 4 mM.

Substance	MIC, Xanthomonas axonopodis pv. glycines [1]	1/(log(MICs (mM)), Xanthomonas axonopodis pv. glycines) [1]	MIC, Escherichia coli [2]	1/(log(MICs (mM)), Escherichia coli) [2]	MIC, Pseudomonas aeruginosa [3]	1/(log(MICs (mM)), Pseudomonas aeruginosa) [3]	MIC, Staphylococcus aureus [4]	1/(log(MICs (mM)), Staphylococcus aureus) [4]	[q]208 nm Buffer (Greenfield 69) [5]	[q]222 nm Buffer (Chen 74) [5]	% Helicity (Buffer) (Greenfield 69) [5]	% Helicity (Buffer) (Chen 74) [5]	concentration that inhibited the in vitro growth of X. axonopodis pv. glycines ([1]; in vitro growth)
AAAAAAAIKMLMDLVNERIMALNKKAKK [Q6TV81(25–52)]	<1 µM	–	–	–	–	–	–	–	–	–	–	–	–
FFFDTLKNLAGKVIGALT [Phes, reference compound]	33 µM	–	–	–	–	–	–	–	–	–	–	–	–
FINKAGKLQSQLRTTVVAAAAFLDAFQKVA [O43312(33–62)]	80 µM	–	–	–	–	–	–	–	–	–	–	–	–
FKALRALRLEDLRIPTSYIK [A3KLW0(117–136), putative IAP; fragment of Rubisco large chain, Anisophyllea pomifera]	NDA	0	NDA	0	NDA	0	NDA	0	-11457	-3442	25.7%	9.8%	–
FKQFHFKDFNRAFGFMTRVALQAEKL [P61458(35–60)]	40 µM	–	–	–	–	–	–	–	–	–	–	–	–
FLSLIPHAINAVSTLVHHF [PS -2, reference compound]	121 µM	–	–	–	–	–	–	–	–	–	–	–	–
FVTNSKRLAEGIEKGVGNSILIKVN [Q8KG25(327–351), putative IAP; fragment of Enolase 2, Chlorobium tepidum]	NDA	0	NDA	0	NDA	0	NDA	0	-7856	-6669	13.3%	18.9%	–
GHRGALKDWVQAAGGAVAAFDFTTKG [Q8RW88(70–95), putative IAP; fragment of Alpha-amylase, Citrus reticulata]	NDA	0	NDA	0	NDA	0	NDA	0	-4005	-6062	0.0168%	17.2%	–
GIGDILKNLAKAAGKAALHAVGESL [HSP-4, reference compound]	<2 µM	–	–	–	–	–	–	–	–	–	–	–	–
GIGKFLHSAKKFGKAFVGEIMNS-NH2 [Magainin-2 amide, reference compound]	13 µM	–	–	–	–	–	–	–	–	–	–	–	–
GKFHQIKKMFLSVGVKVTSLKRIQFGDF [A5LDU0(184–211)]	10 µM	–	–	–	–	–	–	–	–	–	–	–	–
GLKDMIKNLAKEAAVKLAGAVINKFSPQPQ [Nattererin-1, reference compound]	<1 µM	–	–	–	–	–	–	–	–	–	–	–	–
GLNTLKKVIQGLHEVIKLVNNHA [Pseudin B, reference compound]	<2 µM	–	–	–	–	–	–	–	–	–	–	–	–
GLWQIFSSKEEGKDNSQQKSKGDQAKEL [gb|ACU24018.1|(73–101), putative IAP; fragment of Unknown protein, Glycine max]	NDA	0	NDA	0	NDA	0	NDA	0	-7591	-2129	12.4%	6%	–
GLWSTIKQKGKE [DS 01 (1–12), fragment 1–12 of DS 01, Phyllomedusa oreades, reference compound]	NDA	0	NDA	0	NDA	0	NDA	0	-9158	-2137	17.8%	6.1%	–
GLWSTIKQKGKEAAIAAAKAAGQAALGAL [DS 01, reference compound]	<1 µM	–	–	–	–	–	–	–	–	–	–	–	–
GVLDILKGAAKDLAGHVATKVINKI [Syphaxin, reference compound]	25 µM	–	–	–	–	–	–	–	–	–	–	–	–
Gm0026x00785(77–103) (HKMDLHWYLRTLEEVVIRALQRFQFR)	–	–	–	–	–	–	–	–	–	–	–	–	10 µM
IAAAQRITSGAADIAINWAGGLHHAKK [B0CZJ3(104–130), putative IAP; fragment of Histone deacetylase complex, Laccaria bicolor]	NDA	0	NDA	0	NDA	0	NDA	0	-17825	-7158	47.7%	20.3%	–
KAGLQFPVGRIARFLK [B4FGE3(22–37), putative IAP; fragment of Histone H2A, Zea mays]	NDA	0	NDA	0	NDA	0	NDA	0	-5213	-1506	4.2%	4.3%	–
KLKKLLAGQKDGLLGQIAAMSDLYTKK [P94692(929–955), putative IAP; fragment of Pyruvate-ferredoxin oxidoreductase, Desulfovibrio africanus]	NDA	0	NDA	0	NDA	0	NDA	0	-6507	-2066	8.6%	5.9%	–
LAKRRVLTLLRQLRRVSPSS [Q7YRI0(9–28)]	<2 µM	–	–	–	–	–	–	–	–	–	–	–	–
LRPAILVRVKGKGL [Hyposin HA-6, reference compound]	42 µM	–	–	–	–	–	–	–	–	–	–	–	–
LVQRFHAYLHKFREAFMNVGAAAAVEGTKAA [A4HW34(187–217)]	37 µM	–	–	–	–	–	–	–	–	–	–	–	–
SLWKNLSRKISGAVKAQPDLHTLLPLPGS [Q9XEY7(120–148), putative IAP; fragment of Trehalase 1 GMTRE1, Glycine max]	NDA	0	NDA	0	NDA	0	NDA	0	-11377	-2931	25.4%	8.3%	–
VWTTAMEKSSAANFSMSRNQRRSSLHSL [gb|AAD22970.1|(120–148), putative IAP; fragment of Trehalase 1 GMTRE1, Glycine max]	NDA	0	NDA	0	NDA	0	NDA	0	–	–	–	–	–
